Read-outs that look alike come from different tables or passages of the source.
How the values were obtained:
[1] = test system: Klebsiella pneumoniae expressing VIM-1 (IHMA599644); test: Antibiotic potentiation activity: synergistic concentration (MITC95) with imipenem, growth by OD600; assay type: cell-based
Outline: (§1)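 MITC95 = lowest inhibitor concentration giving 95% growth inhibition, read by absorbance after 22–24 h at 35° C. Compound range 200 μM to 0.195 μM, imipenem fixed at 1 or 4 μg/ml, bacteria in 1.1×CAMHB from saline suspension diluted 1:100.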

[2] = test system: Escherichia coli expressing NDM-1 (CLB30005); test: as above; assay type: cell-based
Outline: as §1

[3] = test system: Escherichia coli expressing NDM-1 (CLB30016); test: as above; assay type: cell-based; conditions: 95% inhibition of bacterial growth, strain CLB30016
Outline: as §1

[4] = test system: Serratia marcescens expressing IMP-1 (CL5741); test: as above; assay type: cell-based
Outline: as §1

NDM-1 = NDM-1 (Klebsiella pneumoniae, UniProt C7C422); test: Enzyme activity: determination of IC50, fluorescence assay with CCF2-FA substrate; assay type: biochemical; conditions: CCF2-FA 1.25 μM, 2 hours at 25° C., read-out: NDM1 IC50
Outline: (§2)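 100 mM KH2PO4 pH 7 + 0.005% Tween-20 + 10 μM ZnSO4; CCF2-FA 1.25 μM; NDM-1 1 pM, IMP-1 2 pM, VIM-1 30 pM; cpd 20–0.00063 μM final, DMSO 1:50. 2 h, 25° C. Ex 405/em 460 nm; IC50, 4-param fit.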

IMP-1 = IMP-1 (Serratia marcescens, UniProt P52699); test: as above; assay type: biochemical; conditions: CCF2-FA 1.25 μM, 2 hours at 25° C., read-out: IMP1 IC50
Outline: as §2

VIM-1 = VIM-1 (Pseudomonas aeruginosa, UniProt A0A0F7KYQ8); test: as above; assay type: biochemical; conditions: CCF2-FA 1.25 μM, 2 hours at 25° C., read-out: VIM1 IC50
Outline: as §2

[5] = 95% inhibition of bacterial growth, strain IHMA599644
[6] = 95% inhibition of bacterial growth, strain CLB30005
[7] = 95% inhibition of bacterial growth, strain CL5741

NDM-1, sequence (C7C422 29-270, looked up, species assumed): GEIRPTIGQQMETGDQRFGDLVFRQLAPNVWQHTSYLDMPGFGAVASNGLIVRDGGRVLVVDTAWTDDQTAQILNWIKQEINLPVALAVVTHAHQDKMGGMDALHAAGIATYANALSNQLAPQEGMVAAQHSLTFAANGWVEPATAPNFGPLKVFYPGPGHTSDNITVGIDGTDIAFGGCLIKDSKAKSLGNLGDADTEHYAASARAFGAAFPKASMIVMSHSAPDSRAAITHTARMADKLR
IMP-1, sequence (P52699 19-246, looked up, species assumed): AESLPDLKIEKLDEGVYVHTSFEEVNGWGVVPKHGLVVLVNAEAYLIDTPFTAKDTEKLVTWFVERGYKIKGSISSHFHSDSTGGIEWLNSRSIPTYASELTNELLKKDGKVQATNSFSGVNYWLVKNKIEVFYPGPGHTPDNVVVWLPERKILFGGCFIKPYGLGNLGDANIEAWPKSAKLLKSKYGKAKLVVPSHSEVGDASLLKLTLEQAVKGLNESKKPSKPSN

| SMILES | VIM1 KP599644 MITC95 [1, 5] | NDM1 EC30005 MITC95 [2, 6] | NDM1 EC30016 MITC95 [3] | IMP1 SM5741 MITC95 [4, 7] | IC50 (NDM-1; enzyme 1 pM) | IC50 (IMP-1; enzyme 2 pM) | IC50 (VIM-1; enzyme 30 pM) | VIM1 KP599644 MITC95 ([1]; K. pneumoniae IHMA599644 (VIM-1), 95% inhibition of growth) | NDM1 EC30005 MITC95 ([2]; E. coli CLB30005 (NDM-1), 95% inhibition of growth) | IMP1 SM5741 MITC95 ([4]; S. marcescens CL5741 (IMP-1), 95% inhibition of growth) | IC50 (NDM-1; NDM-1 enzyme 1 pM) | IC50 (IMP-1; IMP-1 enzyme 2 pM) | IC50 (VIM-1; VIM-1 enzyme 30 pM) |
| --- | --- | --- | --- | --- | --- | --- | --- | --- | --- | --- | --- | --- | --- |
| CCC[C@H](C(=O)O)[C@H](Cc1ccc(-c2ccc(CN)cc2)cc1)c1nn[nH]n1 [Example 209, (2S)-2-[(1S)-2-[4′-(aminomethyl)biphenyl-4-yl]-1-(2H-tetrazol-5-yl)ethyl]pentanoic acid] | 12.5 µM | 2.3 µM | 6.2 µM | 4.3 µM | 84 nM | 110 nM | 14 nM |  |  |  |  |  |  |
| CCC[C@H](C(=O)O)[C@H](Cc1ccc(-c2ccc(N3CCNCC3)nc2)cc1)c1nn[nH]n1 [Example 199, (2S)-2-[(1S)-2-[4-(6-piperazin-1-ylpyridin-3-yl)phenyl]-1-(2H-tetrazol-5-yl)ethyl]pentanoic acid] | 31 µM | 4.7 µM | 9.4 µM | 17 µM | 48 nM | 110 nM | 7.4 nM |  |  |  |  |  |  |
| CCC[C@H](C(=O)O)[C@H](Cc1ccc(Cl)cn1)c1nnn[nH]1 [Example 83, (S)-2-((S)-2-(5-chloropyridin-2-yl)-1-(1H-tetrazol-5-yl)ethyl)pentanoic acid] | 100 µM | 8.3 µM |  | >200 µM | 880 nM | > 20000 nM | 71 nM |  |  |  |  |  |  |
| CCC[C@H](C(=O)O)[C@H](Cc1ccc(-c2cnc(C)c(C)n2)cc1)c1nnn[nH]1 [Example 244, (2S)-2-[(1S)-2-[4-(5,6-dimethylpyrazin-2-yl)phenyl]-1-(1H-tetrazol-5-yl)ethyl]pentanoic acid] |  |  |  |  |  |  |  | 38 µM | 9.4 µM | 25 µM | 66 nM | 250 nM | 4.8 nM |
| O=C(O)[C@@H](C1CCOCC1)[C@H](Cc1ccccc1)c1nnn[nH]1 [Example 12, (2S,3S)-4-phenyl-2-(tetrahydro-2H-pyran-4-yl)-3-(1H-tetrazol-5-yl)butanoic acid] | 200 µM | 12.5 µM |  | 200 µM | 99 nM | 1050 nM | 84.7 nM |  |  |  |  |  |  |
| CCC[C@H](C(=O)O)[C@H](Cc1ccc(-c2cccc(OC3CCNCC3)n2)cc1)c1nn[nH]n1 [Example 194, (2S)-2-[(1S)-2-{4-[6-(piperidin-4-yloxy)pyridin-2-yl]phenyl}-1-(2H-tetrazol-5-yl)ethyl]pentanoic acid] | 50 µM | 27 µM |  | 75 µM | 170 nM | 640 nM | 6.7 nM |  |  |  |  |  |  |
| CCCCC[C@H](C(=O)O)[C@H](Cc1ccc2c(c1)OCO2)c1nnn[nH]1 [Example 39, (2S)-2-[(1S)-2-(1,3-benzodioxol-5-yl)-1-(1H-tetrazol-5-yl)ethyl]heptanoic acid] | 100 µM | 75 µM |  | >200 µM | 86 nM | 210 nM | 11 nM |  |  |  |  |  |  |
| CCC[C@H](C(=O)O)[C@H](Cc1ccccc1)c1nnn[nH]1 [Example 4, (S)-2-((S)-2-phenyl-1-(1H-tetrazol-5-yl)ethyl)pentanoic acid] | 50 µM | 9.4 µM |  | >200 µM | 49 nM | 380 nM | 14 nM |  |  |  |  |  |  |
| CCC[C@@H](C(=O)O)[C@H](Cc1ccccc1)c1nnn[nH]1 [Example 5, (R)-2-((S)-2-phenyl-1-(1H-tetrazol-5-yl)ethyl)pentanoic acid] | 200 µM | 62.5 µM |  | >200 µM | 230 nM | 1500 nM | 61 nM |  |  |  |  |  |  |

— patent US9839642B2, “Beta-tetrazolyl-propionic acids as metallo-beta-lactamase inhibitors” (priority 2014, dated 2017)
